According to patent publication US20220000117A1, “METHOD FOR CONTROLLING DISEASES IN SMALL GRAIN CEREALS, SEED OF SMALL GRAIN CEREALS, AND METHOD FOR SUPPRESSING LODGING DAMAGE IN SMALL GRAIN CEREALS” (KUMIAI CHEMICAL INDUSTRY CO., LTD., priority 2019, published 2022):

Tests used:
[1] = tested on: powdery mildew; experiment: Test Example 9: control test of wheat powdery mildew, cup in greenhouse, inoculated, Norin No. 61 (Tables 10 to 14); format: in vivo, Blumeria graminis; design: key to Degree of Disease Occurrence: Σ(index×leaves)/(4×leaves investigated)×100; 0 = no disease, 100 = max
Experimental: (§1) Degree of Disease Occurrence=Σ(Index×Number of Leaves of Index)/(4×Number of Investigated Leaves)×100 (1)
Seed of wheat (variety: Norin No. 61) was used, and 100 ml of suspension waters each containing the compound shown in Table 10 at an amount shown in […] (synthesis was performed in accordance with a known method, a solution dissolved in DMSO or formulated 10% wettable powder was used) were prepared. The seed having a mass of 1 kg of wheat was mixed into the suspension water with a chemical treated amount shown in Table 10, and air-dried, and then, 5 seeds were sown in a plastic cup having a diameter of 6 cm containing river sand and managed in a greenhouse. In Comparative Examples, 20 ml of the suspension water of an active ingredient, which had been adjusted to have a concentration shown in Table 10, was sprayed in a frame of 45 cm×45 cm in which a pot of wheat seedlings was placed (corresponding to 1000 L/ha) 14 days after seeding. On day 14 after seeding, conidiospores of powdery mildew were sifted over leaves of wheat seedlings and inoculated onto the leaves (after the sprayed liquid was dried in the case of Comparative Examples), a lesion area ratio of powdery mildew in a first leaf was investigated 21 days after seeding according to the criteria in Table 1, and the degree of disease occurrence was calculated by the above calculation formula (1).

[2] = tested on: septoria leaf blotch; experiment: Test Example 10: control test of septoria leaf blotch of wheat, cup in greenhouse, inoculated, variety ARKEOS (Tables 15 to 19); format: in vivo, Septoria tritici; settings: Table 19; for Degree of Disease Occurrence: untreated 45.0; for Disease Leaf Rate (%): untreated 98.0
Experimental: as §1
Seed of wheat (variety: ARKEOS) was used, and 100 ml of suspension waters each containing the compound shown in Table 15 at an amount shown in Table 15 (synthesis was performed in accordance with a known method, a liquid dissolved in a small amount of DMSO or formulated 10% wettable powder was used) were prepared. Seed having a mass of 1 kg was mixed into the suspension water with a rate shown in Examples of Table 15, and air-dried, and then, 5 seeds were sown in a plastic cup having a diameter of 6 cm containing mixed soil of river sand and horticultural soil and managed in a greenhouse. In Comparative Examples, 20 ml of suspension water of an active ingredient, which had been adjusted to have a concentration shown in Table 15 to 19, was sprayed in a frame of 45 cm×45 cm in which a pot of wheat seedlings was placed (corresponding to 1000 L/ha) 14 days after seeding. On day 14 after seeding, a spore suspension in which conidiospores of septoria leaf blotch are suspended was sprayed and inoculated on leaves of wheat seedlings (after the sprayed liquid was dried in the case of Comparative Examples), a lesion area ratio of septoria leaf blotch in a second leaf was investigated approximately 35 days after seeding according to the criteria in Table 1, and the degree of disease occurrence was calculated by the above calculation formula (1).

[3] = Table 12 run (different day), Foliage Treatment, spray 5 ppm (5 g/ha)
[4] = Table 12 run (different day), Foliage Treatment, spray 10 ppm (10 g/ha)
[5] = Table 12 run (different day), Foliage Treatment, spray 50 ppm (50 g/ha)
[6] = Table 12 run (different day), Seed Treatment 0.05 g/Seed 1 kg (5 g/ha)
[7] = Table 12 run (different day), Seed Treatment 0.1 g/Seed 1 kg (10 g/ha)
[8] = Table 12 run (different day), Seed Treatment 0.5 g/Seed 1 kg (50 g/ha)
[9] = Table 14, Foliage Treatment, spray 50 ppm suspension water (corresponding to 50 g/ha) 14 days after seeding, untreated 70.0
[10] = Table 14, Foliage Treatment, spray 50 ppm suspension water (corresponding to 50 g/ha) 14 days after seeding, untreated 100.0
[11] = Table 14, Seed Treatment, 0.5 g/Seed 1 kg (corresponding to 50 g/ha), first leaf, 21 days after seeding, untreated 70.0
[12] = Table 14, Seed Treatment, 0.5 g/Seed 1 kg (corresponding to 50 g/ha), first leaf, 21 days after seeding, untreated 100.0
[13] = Foliage Treatment, spray 50 ppm suspension water (corresponding to 50 g/ha) 14 days after seeding
[14] = Seed Treatment, 0.5 g/Seed 1 kg (corresponding to 50 g/ha)
[15] = Table 13 run (different day), Foliage Treatment, spray 5 ppm (5 g/ha)
[16] = Table 13 run (different day), Foliage Treatment, spray 10 ppm (10 g/ha)
[17] = Table 13 run (different day), Foliage Treatment, spray 50 ppm (50 g/ha)
[18] = Table 13 run (different day), Seed Treatment 0.05 g/Seed 1 kg (5 g/ha)
[19] = Table 13 run (different day), Seed Treatment 0.1 g/Seed 1 kg (10 g/ha)
[20] = Table 13 run (different day), Seed Treatment 0.5 g/Seed 1 kg (50 g/ha)
[21] = Foliage Treatment, spray 100 ppm suspension water (corresponding to 100 g/ha) 14 days after seeding
[22] = Seed Treatment, 1 g/Seed 1 kg (corresponding to 100 g/ha)

## CCNC(=N)c1snc(Cl)c1Cl [Compound (15)]
[1]; [3]
  Degree of Disease Occurrence: 66.7
  Disease Leaf Rate (%): 100.0%
[1]; [4]
  Degree of Disease Occurrence: 80.0
  Disease Leaf Rate (%): 93.3%
[1]; [5]
  Degree of Disease Occurrence: 38.3
  Disease Leaf Rate (%): 60.0%
[1]; [6]
  Degree of Disease Occurrence: 40.8
  Disease Leaf Rate (%): 70.0%
[1]; [7]
  Degree of Disease Occurrence: 31.3
  Disease Leaf Rate (%): 60.0%
[1]; [8]
  Degree of Disease Occurrence: 11.9
  Disease Leaf Rate (%): 34.4%
[1]; [9]
  Degree of Disease Occurrence: 47.9
[1]; [10]
  Disease Leaf Rate (%): 100.0%
[1]; [11]
  Degree of Disease Occurrence: 13.1
[1]; [12]
  Disease Leaf Rate (%): 37.5%
[2]; [13]
  Degree of Disease Occurrence: 39.2
  Disease Leaf Rate (%): 93.6%
[2]; [14]
  Degree of Disease Occurrence: 10.3
  Disease Leaf Rate (%): 41.3%

## N=C(Nc1ccccc1)c1snc(Cl)c1Cl [Compound (16)]
[1]; [4]
  Degree of Disease Occurrence: 63.3
  Disease Leaf Rate (%): 100.0%
[1]; [5]
  Degree of Disease Occurrence: 43.3
  Disease Leaf Rate (%): 80.0%
[1]; [7]
  Degree of Disease Occurrence: 22.5
  Disease Leaf Rate (%): 65.0%
[1]; [8]
  Degree of Disease Occurrence: 6.3
  Disease Leaf Rate (%): 16.7%
[1]; Table 14, Foliage Treatment, spray 10 ppm suspension water (corresponding to 10 g/ha) 14 days after seeding, untreated 70.0
  Degree of Disease Occurrence: 32.6
[1]; Table 14, Foliage Treatment, spray 10 ppm suspension water (corresponding to 10 g/ha) 14 days after seeding, untreated 100.0
  Disease Leaf Rate (%): 80.6%
[1]; [9]
  Degree of Disease Occurrence: 19.6
[1]; [10]
  Disease Leaf Rate (%): 53.3%
[1]; Table 14, Foliage Treatment, spray 100 ppm suspension water (corresponding to 100 g/ha) 14 days after seeding, untreated 70.0
  Degree of Disease Occurrence: 29.2
[1]; Table 14, Foliage Treatment, spray 100 ppm suspension water (corresponding to 100 g/ha) 14 days after seeding, untreated 100.0
  Disease Leaf Rate (%): 80.6%
[1]; Table 14, Seed Treatment, 0.1 g/Seed 1 kg (corresponding to 10 g/ha), first leaf, 21 days after seeding, untreated 70.0
  Degree of Disease Occurrence: 15.2
[1]; Table 14, Seed Treatment, 0.1 g/Seed 1 kg (corresponding to 10 g/ha), first leaf, 21 days after seeding, untreated 100.0
  Disease Leaf Rate (%): 60.8%
[1]; [11]
  Degree of Disease Occurrence: 8.9
[1]; [12]
  Disease Leaf Rate (%): 35.4%
[1]; Table 14, Seed Treatment, 1 g/Seed 1 kg (corresponding to 100 g/ha), first leaf, 21 days after seeding, untreated 70.0
  Degree of Disease Occurrence: 18.2
[1]; Table 14, Seed Treatment, 1 g/Seed 1 kg (corresponding to 100 g/ha), first leaf, 21 days after seeding, untreated 100.0
  Disease Leaf Rate (%): 50.0%
[2]; [13]
  Degree of Disease Occurrence: 38.3
  Disease Leaf Rate (%): 99.7%
[2]; [14]
  Degree of Disease Occurrence: 29.4
  Disease Leaf Rate (%): 82.5%

## N/C(=N\O)c1snc(Cl)c1Cl [Compound (17)]
[1]; [3]
  Degree of Disease Occurrence: 45.0
  Disease Leaf Rate (%): 93.3%
[1]; [4]
  Degree of Disease Occurrence: 43.3
  Disease Leaf Rate (%): 80.0%
[1]; [6]
  Degree of Disease Occurrence: 23.3
  Disease Leaf Rate (%): 66.7%
[1]; [7]
  Degree of Disease Occurrence: 10.4
  Disease Leaf Rate (%): 25.0%
[1]; [15]
  Degree of Disease Occurrence: 85.8
  Disease Leaf Rate (%): 100.0%
[1]; [16]
  Degree of Disease Occurrence: 62.4
  Disease Leaf Rate (%): 95.8%
[1]; [17]
  Degree of Disease Occurrence: 42.4
  Disease Leaf Rate (%): 90.6%
[1]; [18]
  Degree of Disease Occurrence: 66.7
  Disease Leaf Rate (%): 100.0%
[1]; [19]
  Degree of Disease Occurrence: 47.9
  Disease Leaf Rate (%): 100.0%
[1]; [20]
  Degree of Disease Occurrence: 33.1
  Disease Leaf Rate (%): 83.8%
[2]; [13]
  Degree of Disease Occurrence: 38.3
  Disease Leaf Rate (%): 99.7%
[2]; [21]
  Degree of Disease Occurrence: 36.7
  Disease Leaf Rate (%): 94.9%
[2]; [14]
  Degree of Disease Occurrence: 29.4
  Disease Leaf Rate (%): 82.5%
[2]; [22]
  Degree of Disease Occurrence: 20.9
  Disease Leaf Rate (%): 78.8%
